# Test results: US11471462B2, “Compositions and methods for detecting and treating diabetes” (THE BROAD INSTITUTE, INC., priority 2016, dated 2022)
# Read-outs that look alike come from different tables or passages of the source.
# What was measured:
# SLC16A11 [1] = assay: Compound treatment, SLC16A11 expression by ddPCR in SNU761 cells; format: cell-based, human; conditions: SNU761 cells
# In short: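 SNU761 hepatocellular carcinoma cells, plated 24 h, treated with compounds at 10 μM final or vehicle, with treatment times matching the LINCS dataset. SLC16A11 mRNA quantified by TaqMan droplet digital PCR, normalized to TBP or HPRT1.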
# SLC16A11 [2] = assay: Compound treatment, SLC16A11 expression by ddPCR in NCIH716 cells; format: cell-based, human; conditions: same concentrations and treatment times as LINCS
# Procedure: A small number of the compounds that made the strongest positive connections to the SLC16A11 gene expression signature were selected and tested. […] Methotrexate was also included, which had been annotated as a dihydrofolate reductase inhibitor. SNU761 cells (derived from a human hepatocellular carcinoma) and NCIH716 cells (derived from a human cecum adenocarcinoma), which both express SLC16A11, were treated with the compounds. The same compound concentrations and treatment times were used as in the LINCS dataset experiments. […] For normalization, a different housekeeper gene, HPRT1, was used and obtained similar results with the mTOR inhibitors (FIGS. 14A and 14B).
# SNU761 (human hepatocellular carcinoma) and NCIH716 (human cecum adenocarcinoma) were cultured in RPMI Medium 1640 supplemented with 10% Fetal Bovine Serum (FBS), 100 μg/ml Streptomycin and 100 U/ml Penicillin. Cells were grown in a humidified CO2 incubator, at 37° C.
# For the unbiased approach taken to investigate the compounds that connected to the SLC16A11 gene expression signature, compounds were obtained from compound management at the Broad Institute.
# (§1) SNU761 and NCIH716 cells were plated into 96 well plates at a density of 20,000 cells per well. Hepatocytes were plated into collagen coated 96 well plates (Corning, 354408) at a density of 50,000 cells per well. After 24 hours, cells were treated with compounds at a final concentration of 10 μM or vehicle control for the appropriate amount of time.
# At the time of collection, cells in 96 well plates were lysed by directly adding 50 μL of RLT buffer (Qiagen). […]
# (§2) RNA was DNase treated and converted into cDNA using the High-Capacity RNA-to-cDNA kit (Thermo Fisher Scientific). The following FAM-labeled TaqMan Real-Time PCR assays (Thermo Fisher Scientific) were used to quantify gene expression: SLC16A11 (Hs00601062_g1), SLC16A13 (Hs00416832_m1), SLC16A1 (Hs01560299_m1). […] Droplets were generated and analyzed using a QX200 Droplet Generator and Reader system (BioRad). Data was extracted using QuantaSoft (BioRad) and analyzed using Microsoft Excel.
# SLC16A1 [3] = assay: Compound treatment, SLC16A1 expression by ddPCR in SNU761 cells; format: cell-based, human; conditions: 10 μM for 24 hours
# Procedure: (§3) FIGS. 14A-14D provide graphs showing that mTOR inhibitors increase SLC16A11, but not SLC16A1 transcript levels. […] SLC16A11 (FIGS. 14A and 14B) and SLC16A1 (FIGS. 14C and 14D) expression was then assessed using droplet digital PCR (ddPCR). Bar plots depict relative fold-changes with respect to DMSO and error bars and standard deviations. Expression is normalized to housekeeping genes TBP or HPRT1.
# (§4) A small number of the compounds that made the strongest positive connections to the SLC16A11 gene expression signature were selected and tested. […] Methotrexate was also included, which had been annotated as a dihydrofolate reductase inhibitor. SNU761 cells (derived from a human hepatocellular carcinoma) and NCIH716 cells (derived from a human cecum adenocarcinoma), which both express SLC16A11, were treated with the compounds. […]
# as §2
# SLC16A1 [4] = assay: Compound treatment, SLC16A1 expression by ddPCR in NCIH716 cells; format: cell-based, human; conditions: 10 μM for 24 hours
# Procedure: as §3, §4, §2
# SLC16A11 [5] = assay: Compound treatment, SLC16A11 expression by ddPCR in primary human hepatocytes; format: cell-based; conditions: vs DMSO
# Procedure: (§5) SLC16A11 (denoted by A11 when normalized by TBP and A11* for HPRT1), SLC16A13 (A13), and SLC16A1 (A1) in comparison with DMSO treated cells.
# (§6) Primary human hepatocytes were purchased from Bioreclamation IVT. Hepatocyte lot used was BHL. Cells were thawed and immediately resuspended in CP media (Bioreclamation IVT) supplemented with torpedo antibiotic (Bioreclamation IVT). Cell concentration and viability were assessed prior to use. Cells were grown in a humidified CO2 incubator, at 37° C.
# as §1, with “time. […]” for “time.”
# as §2
# SLC16A13 = assay: Compound treatment, SLC16A13 expression by ddPCR in primary human hepatocytes; format: cell-based; conditions: vs DMSO
# Procedure: as §5, §6
# as §1, with “time. […]” for “time.”
# as §2
# SLC16A1 [6] = assay: Compound treatment, SLC16A1 expression by ddPCR in primary human hepatocytes; format: cell-based; conditions: vs DMSO
# Procedure: as §5, §6
# as §1, with “time. […]” for “time.”
# as §2
# SLC16A11 (A11) = assay: ddPCR based screening assay for modulators of SLC16A11 expression (Z′); format: cell-based, human; conditions: SNU 761 cells; compound as positive control
# Text: As detailed herein above, SLC16A11 (A11) belongs to a family of monocarboxylate transporters. Expression of A11 was studied in SNU 761 cell lines. These liver cancer cells are ideal for studying SLC16A11 expression because A11 is expressed in higher quantity in liver cells, although expression of the gene in all tissues is extremely low. The 5 SNP risk haplotype causes lowered expression and interferes with protein-protein interactions between A11 and a cofactor protein, indicating loss of function. Therefore, increasing A11 expression in individuals with the risk haplotype is likely beneficial.
# The quality of an assay can be quantified by Z′, a measure of how well the assay can differentiate between the positive and negative controls. Using the formula: […]
# First the cells were treated with inhibitor compounds, their RNA was extracted, and that RNA was used as a template to create DNA. Then, the DNA was quantified using droplet digital PCR (ddPCR), analyzed and quantified using QuantaSoft™ (BioRad). […]
# From the QuantaSoft scoring of each droplet, the means and standard deviations of SLC16A11 expression levels was determined in response to compound treatment. […] Points in light gray had the gene of interest and were scored as positive (FIG. 17C). SLC16A11 was scored in the graph. […]
# panel of 260 kinases = conditions: concentrations up to 10 μmol/L, cited from earlier work
structure (smiles),measurement,setting,value
"COc1ccc(-c2ccc3c(N4CCOC[C@@H]4C)nc(N4CCOC[C@@H]4C)nc3n2)cc1CO [AZD-8055, [5-[2,4-Bis((3S)-3-methylmorpholin-4-yl)pyrido[2,3-d]pyrimidin-7-yl]-2-methoxyphenyl]methanol]","SLC16A11 (A11) transcript levels, dose response curve",SLC16A11 [1]; FIG. 16 top panel,increase
same,"SLC16A11 transcript levels, compound treated compared to DMSO treated cells","SLC16A11 [1]; same concentrations and treatment times as LINCS, ddPCR",about 3 fold
same,"avg_fc (SLC16A11 expression, compound treated vs DMSO treated cells)",SLC16A11 [1]; same doses and treatment times as in the LINCS dataset,4.253
same,"increase in SLC16A11 expression, compound treated compared to DMSO treated cells","SLC16A11 [1]; unbiased test of 59 top and 20 middle LINCS compounds, LINCS doses and times",~4 fold
same,"SLC16A11 transcript levels, compound treated compared to DMSO treated cells",SLC16A11 [2],about 3 fold
same,SLC16A1 expression with respect to DMSO,SLC16A1 [3],slight decrease
same,SLC16A1 expression with respect to DMSO,SLC16A1 [4],slight decrease
same,SLC16A11 expression,SLC16A11 [5],increase SLC16A11 expression
same,SLC16A13 expression,SLC16A13,decreased
same,SLC16A1 expression,SLC16A1 [6],decreased
same,A11 expression in manual ddPCR assay,SLC16A11 (A11),increased
same,activity against a panel of 260 kinases,panel of 260 kinases,not show significant activity
same,activity against a panel of 260 kinases,panel of 260 kinases; listed as AZD8055,no significant activity
